Laboratory results as given in patent publication EP3967293A1, “COMPOSITION BASED ON VITAMIN E FOR TOPIC USE” (Sigla S.r.l., priority 2020, dated 2022).

How the values were obtained:
[1] = index of diffusion (spreading value), in vivo test on the forearm; details: 4 mg on the forearm; 23°C; relative humidity 60%; ten minutes after application
Description: The index of diffusion of a compound is defined as the area (in mm^2) of a skin surface covered by said compound in a specific period of time.
The method used to determine the index of diffusion of a liquid component is an in vivo test. This method consists in applying 4 mg of the component to be analysed on the front forearm of an individual. For each component, 4 separate applications were carried out on the same individual. The test is carried out at a temperature of 23°C and at a relative humidity of 60%. Ten minutes after application of a sample on the forearm the area of diffusion was photographed and measured.

[2] = viscosity, Rheomat RM 180 rheometer; format: physicochemical; details: at 20°C; 1500 shear rate for 5 min.
Description: The viscosity is measured using a Rheomat RM 180 rheometer. The sample analysed has a temperature between 20-25°C. The settings for the viscosity test are: bob 9, tube 1, 1500 shear rate for 5 min. (300 sec.).

- Index of diffusion [1]: 1600 mm^2/10 min.
- Viscosity [2]: 4 mPa·s
Compound: CCCCCCCCOCCCCCCCC [Dicaprylyl ether]
